Structures can show the parent of a compound that is named as a salt. Where two headings read alike, the source gives them in different places.

Data set [1] in a line: Osmolality contribution of gel components. It is filed as physicochemical. The following applies: 0.68% timolol maleate; 0.5% carbomer 980 calculated from 0.3% carbomer 934. Here is the method:
The exact osmolality 0.5% carbomer 980 gel was not known, but it was calculated using the osmolality of 0.3% carbomer 934.^19 The 0.68% timolol maleate contributes 31.4 mOsm and the carbomer contributes approximately 42 mOsm. To make the gel isotonic, 4.1 g of 5% dextrose would need to be added to obtain an isotonic gel with a tonicity of 300 mOsm. However, the results of this experiment will be compared to the results of a similar experiment using carboxymethylcellulose, CMC. […] The gel was thoroughly mixed by hand and then with a stir bar and magnetic stirrer to ensure uniformity.
Also, to make the concentrated 9% of the polymer to create enough for 3 gels, 9 g of the polymer was added to a 250 ml beaker. The polymer was hydrated with distilled water to 180 ml which took 1 hour to dissolve through the use of magnetic stirrer and stirring by hand. Next, 0.68 g of timolol maleate salt was added to the beaker with 60 ml of Na CMC. The contents were then q.s to a final concentration of 100 ml. […] Timolol maleate has osmolality of 31 mOsm and Na CMC has a theoretical osmolality of 470 mOsm which mitigated the need to add dextrose to reach osmolality.^18 The pH was assessed by using an electrode and the pH was between 7-8 which prevented the need to add sodium hydroxide to get to the physiological pH. […]

For data set [2] the following is noted: Example 2; Na CMC value theoretical; cited from earlier work.
The conditions of data set [3]: low viscosity ophthalmic solutions; cited from earlier work.
The conditions of data set [4]: first seven years of use / commercial production of ophthalmic product, cited from earlier work.

Regarding `CC(C)(C)NC[C@H](O)COc1nsnc1N1CCOCC1` [Timolol maleate], in data set [1], the osmolality contribution is recorded as 31.4 mOsm. The osmolality in data set [2] is 31 mOsm. Besides, the “share of Timolol that reaches intraocular tissues” value in data set [3] is on record as “less than 5%”. The values for the deaths entry in data set [4] and in data set [4] (listed as timolol maleate) were “Thirty two” and around 37, respectively.

The record behind these values is patent US20170368182A1, “Pharmaceutical Semi-Solid Gels with Entrapped Calcium Phosphate Nanoparticles” (Belmont University, priority 2014, published 2017).
